Data taken from patent US6800621B2, “Imidazo[4,5-b]-pyridiniummethyl-containing cephem compounds having broad antibacterial spectrum activity” (Shionogi & Co., Ltd., priority 1998, dated 2004).
≈ marks a conversion by molar mass, not a printed value. Structures can show the parent of a compound that is named as a salt. Where two headings read alike, the source gives them in different places.

Columns and labels:
S.aureus SR14 = test: MIC by agar dilution method; format: cell-based
Procedure: (§1) The minimal inhibitory concentration (MIC) of compound (I) against various bacteria was determined by an agar dilution method. As reference compounds, used were cefozopran hydrochloride (CZOP) described in JP(A) Kokai H03-47189, cefoselis sulfate (CFSL) described in JP(A) Kokai H07-196665 and WO97/41128, compound A of which 3-side chain is a type of imidazo[4,5-c]pyridiniummethyl, and vancomycin. In the table, “Ex5-3”, for example, represents the end compound of the present invention obtained in Example 5-3, and the others are similarly expressed.

S.pneumoniae Type 1 = test: MIC by agar dilution method; format: cell-based
Procedure: as §1

S.pneumoniae SR16675 = test: MIC by agar dilution method; format: cell-based
Procedure: as §1

E.cloacae ATCC 13047 = test: MIC by agar dilution method; format: cell-based; conditions: E.cloacae ATCC 13047, G(−)
Procedure: as §1

S.aureus SR3626 = test: MIC by agar dilution method; format: cell-based
Procedure: as §1

S.marvescens ATCC 13880 = test: MIC by agar dilution method; format: cell-based
Procedure: as §1

E.coli SR5028 = test: MIC by agar dilution method; format: cell-based; conditions: E.coli SR5028, G(−)
Procedure: as §1

P.vulgaris CN-329 = test: MIC by agar dilution method; format: cell-based; conditions: P.vulgaris CN-329, G(−)
Procedure: as §1

S.mitis SR16376 = test: MIC by agar dilution method; format: cell-based
Procedure: as §1

P.aeruginosae SR5393 = test: MIC by agar dilution method; format: cell-based; conditions: P.aeruginosae SR5393, G(−)
Procedure: as §1

S.aureus SMITH = test: MIC by agar dilution method; format: cell-based
Procedure: as §1

E.cloacae SR4321 = test: MIC by agar dilution method; format: cell-based; conditions: E.cloacae SR4321, G(−)
Procedure: as §1

P.aeruginosa SR24 = test: MIC by agar dilution method; format: cell-based; conditions: P.aeruginosa SR24, G(−)
Procedure: as §1

E.coli NIH JC-2 = test: MIC by agar dilution method; format: cell-based; conditions: E.coli NIH JC-2, G(−)
Procedure: as §1

E.faecalis SR1004 = test: MIC by agar dilution method; format: cell-based; conditions: E.faecalis SR1004, G(+)
Procedure: as §1

S.aureus SR3637 [1] = test: MIC by agar dilution method; format: cell-based
Procedure: as §1

S.aureus SR3637 [2] = test: ED50 mouse/S.aureus SR3637; format: in vivo
[3] = Staphylococcus aureus, S.aureus SR14, G(+), read-out: MIC
[4] = Streptococcus pneumoniae, TYPE1, S.pneumoniae Type 1, G(+), read-out: MIC
[5] = Streptococcus pneumoniae, S.pneumoniae SR16675, G(+), read-out: MIC
[6] = Enterobacter cloacae, ATCC13047, read-out: MIC
[7] = Staphylococcus aureus, S.aureus SR3626 (MRSA), G(+), read-out: MIC
[8] = Escherichia coli, read-out: MIC
[9] = Proteus vulgaris, CN329, read-out: MIC
[10] = Streptococcus mitis, S.mitis SR16376, G(+), read-out: MIC
[11] = Staphylococcus aureus, S.aureus SMITH, G(+), read-out: MIC
[12] = Enterobacter cloacae, read-out: MIC
[13] = Pseudomonas aeruginosa, read-out: MIC
[14] = Escherichia coli, NIHJC2, read-out: MIC
[15] = Enterococcus faecalis, read-out: MIC
[16] = Staphylococcus aureus, S.aureus SR3637 (MRSA), G(+), read-out: MIC

Row | Structure (SMILES) | MIC (S.aureus SR14; S.aureus SR14, G(+)) [µg/mL] | MIC (S.pneumoniae Type 1; S.pneumoniae Type 1, G(+)) [µg/mL] | MIC (S.pneumoniae SR16675; S.pneumoniae SR16675, G(+)) [µg/mL] | MIC (E.cloacae ATCC 13047) [µg/mL] | MIC (S.aureus SR3626; S.aureus SR3626 (MRSA), G(+)) [µg/mL] | MIC (S.marvescens ATCC 13880; S.marvescens ATCC 13880, G(−)) [µg/mL] | MIC (E.coli SR5028) [µg/mL] | MIC (P.vulgaris CN-329) [µg/mL] | MIC (S.mitis SR16376; S.mitis SR16376, G(+)) [µg/mL] | MIC (P.aeruginosae SR5393) [µg/mL] | MIC (S.aureus SMITH; S.aureus SMITH, G(+)) [µg/mL] | MIC (E.cloacae SR4321) [µg/mL] | MIC (P.aeruginosa SR24) [µg/mL] | MIC (E.coli NIH JC-2) [µg/mL] | MIC (E.faecalis SR1004) [µg/mL] | MIC (S.aureus SR3637 [1]; S.aureus SR3637 (MRSA), G(+)) [µg/mL] | ED50 (S.aureus SR3637 [2]) [mg/kg] | other results
1 | CCO/N=C(\C(=O)NC1C(=O)N2C(C(=O)[O-])=C(C[n+]3ccc4c(c3)ncn4CCCN)CSC12)c1nsc(N)n1 (stereo not shown) [A, reference compound] | – | – | – | – | – | – | – | – | – | – | – | – | – | – | – | – | – | MIC (S.aureus SR14; [3]): 3.13 µg/mL (≈ 5.34 µM); MIC (S.pneumoniae Type 1; [4]): 0.0125 µg/mL (≈ 0.0213 µM); MIC (S.pneumoniae SR16675; [5]): 0.39 µg/mL (≈ 0.665 µM); MIC (E.cloacae ATCC 13047; [6]): 0.48 µg/mL (≈ 0.818 µM); MIC (S.aureus SR3626; [7]): 25 µg/mL (≈ 42.6 µM); MIC (S.marvescens ATCC 13880): 0.1 µg/mL (≈ 0.17 µM); MIC (E.coli SR5028; [8]): 1.56 µg/mL (≈ 2.66 µM); MIC (P.vulgaris CN-329; [9]): 0.1 µg/mL (≈ 0.17 µM); MIC (S.mitis SR16376; [10]): 0.1 µg/mL (≈ 0.17 µM); MIC (P.aeruginosae SR5393; read-out: MIC): 3.13 µg/mL (≈ 5.34 µM); MIC (S.aureus SMITH; [11]): 0.78 µg/mL (≈ 1.33 µM); MIC (E.cloacae SR4321; [12]): 12.5 µg/mL (≈ 21.3 µM); MIC (P.aeruginosa SR24; [13]): 0.78 µg/mL (≈ 1.33 µM); MIC (E.coli NIH JC-2; [14]): 0.05 µg/mL (≈ 0.0852 µM); MIC (E.faecalis SR1004; [15]): 50 µg/mL (≈ 85.2 µM); MIC (S.aureus SR3637 [1]; [16]): 25 µg/mL (≈ 42.6 µM)
2 | CO/N=C(\C(=O)N[C@@H]1C(=O)N2C(C(=O)[O-])=C(Cn3cc[n+]4ncccc34)CS[C@H]12)c1nsc(N)n1 [CZOP, cefozopran hydrochloride, reference compound] | – | – | – | – | – | – | – | – | – | – | – | – | – | – | – | – | – | MIC (S.aureus SR14; [3]): 0.78 µg/mL; MIC (S.pneumoniae Type 1; [4]): 0.05 µg/mL; MIC (S.pneumoniae SR16675; [5]): 0.78 µg/mL; MIC (E.cloacae ATCC 13047; [6]): 0.2 µg/mL; MIC (S.aureus SR3626; [7]): 50 µg/mL; MIC (S.marvescens ATCC 13880; S.marvescens ATCC 13880, G(−), read-out: MIC): 0.1 µg/mL; MIC (E.coli SR5028; [8]): 0.78 µg/mL; MIC (P.vulgaris CN-329; [9]): 0.2 µg/mL; MIC (S.mitis SR16376; [10]): 0.2 µg/mL; MIC (P.aeruginosae SR5393; read-out: MIC): 1.56 µg/mL; MIC (S.aureus SMITH; [11]): 0.78 µg/mL; MIC (E.cloacae SR4321; [12]): 6.25 µg/mL; MIC (P.aeruginosa SR24; [13]): 0.78 µg/mL; MIC (E.coli NIH JC-2; [14]): 0.05 µg/mL; MIC (E.faecalis SR1004; [15]): 25 µg/mL; MIC (S.aureus SR3637 [1]; [16]): 50 µg/mL
3 | CCON=C(C(=O)NC1C(=O)N2C(C(=O)[O-])=C(C[n+]3cccc4c3ncn4C3CCNC3)CSC12)c1nsc(N)n1.Cl (stereo not shown) [Ex4-1] | 1.56 | 0.025 | 0.39 | 0.78 | 3.13 | 0.2 | 3.13 | 0.78 | 0.1 | 3.13 | 0.78 | 25 | 0.78 | 0.2 | 50 | 6.25 | 11.3 | –
4 | CCON=C(C(=O)NC1C(=O)N2C(C(=O)[O-])=C(C[n+]3cccc4c3ncn4CCCN)CSC12)c1nsc(N)n1.Cl (stereo not shown) [Ex5-2] | 0.78 | 0.025 | 0.78 | 0.78 | 3.13 | 0.39 | 3.13 | 0.78 | 0.2 | 3.13 | 0.78 | 25 | 0.78 | 0.39 | 50 | 3.13 | – | –
5 | Cl.NCCCn1cnc2c1ccc[n+]2CC1=C(C(=O)[O-])N2C(=O)C(NC(=O)C(=NOCF)c3nsc(N)n3)C2SC1 (stereo not shown) [Ex5-3] | 0.78 | 0.025 | 0.78 | 0.39 | 3.13 | 0.1 | 1.56 | 0.39 | 0.2 | 6.25 | 0.78 | 12.5 | 1.56 | 0.1 | 100 | 3.13 | 5.66 | –
6 | CCON=C(C(=O)NC1C(=O)N2C(C(=O)[O-])=C(C[n+]3cccc4c3ncn4CCCNC)CSC12)c1nsc(N)n1.Cl (stereo not shown) [Ex6-2] | 1.56 | 0.025 | 0.78 | 0.78 | 3.13 | 0.39 | 3.13 | 0.78 | 0.1 | 6.25 | 1.56 | 25 | 1.56 | 0.39 | 50 | 3.13 | 7.92 | –
7 | CNCCCn1cnc2c1ccc[n+]2CC1=C(C(=O)[O-])N2C(=O)C(NC(=O)C(=NOCF)c3nsc(N)n3)C2SC1.Cl (stereo not shown) [Ex6-3] | 0.78 | 0.025 | 0.78 | 0.78 | 6.25 | 0.2 | 1.56 | 0.39 | 0.2 | 6.25 | 0.78 | 12.5 | 3.13 | 0.2 | 50 | 6.25 | 6.43 | –
8 | CN[C@H](CC(C)C)C(=O)N[C@H]1C(=O)N[C@@H](CC(N)=O)C(=O)N[C@H]2C(=O)N[C@H]3C(=O)N[C@H](C(=O)N[C@H](C(=O)O)c4cc(O)cc(O)c4-c4cc3ccc4O)[C@H](O)c3ccc(c(Cl)c3)Oc3cc2cc(c3O[C@@H]2O[C@H](CO)[C@@H](O)[C@H](O)[C@H]2O[C@H]2C[C@](C)(N)[C@H](O)[C@H](C)O2)Oc2ccc(cc2Cl)[C@H]1O [VCM, vancomycin, reference compound] | – | – | – | – | – | – | – | – | – | – | – | – | – | – | – | – | – | MIC (S.aureus SR14; Staphylococcus aureus, SR14): 0.78 µg/mL (≈ 0.538 µM); MIC (S.pneumoniae Type 1; Streptococcus pneumoniae, TYPE1): 0.39 µg/mL (≈ 0.269 µM); MIC (S.pneumoniae SR16675; Streptococcus pneumoniae, SR16675): 0.2 µg/mL (≈ 0.138 µM); MIC (S.aureus SR3626; Staphylococcus aureus, MRSA): 3.13 µg/mL (≈ 2.16 µM); MIC (S.mitis SR16376; Streptococcus mitis, SR16376): 0.39 µg/mL (≈ 0.269 µM); MIC (S.aureus SMITH; Staphylococcus aureus): 0.78 µg/mL (≈ 0.538 µM); MIC (S.aureus SR3637 [1]; Staphylococcus aureus, MRSA): 3.13 µg/mL (≈ 2.16 µM); ED50 (S.aureus SR3637 [2]; Staphylococcus aureus, read-out: ED50): 5.66 mg/kg
